# PubChem BioAssay (NCI)
#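 Five concentrations, 48 hours, 96-well plates. GI50: concentration for 50% inhibition of growth. TGI marks complete inhibition of growth.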
# Columns and labels:
# Experiment in all cases: inhibition of tumour cell growth, NCI panel, 48 h
# COLO 205 colon = tested on: COLO 205 colon
# TK-10 renal = tested on: TK-10 renal
# RXF 393 renal = tested on: RXF 393 renal
# SF-539 CNS = tested on: SF-539 CNS
# NCI-H226 lung = tested on: NCI-H226 lung
# HCT-15 colon = tested on: HCT-15 colon
# HL-60(TB) leukemia = tested on: HL-60(TB) leukemia
# 786-0 renal = tested on: 786-0 renal
# OVCAR-5 ovarian = tested on: OVCAR-5 ovarian
# HCC-2998 colon = tested on: HCC-2998 colon
# OVCAR-4 ovarian = tested on: OVCAR-4 ovarian
# K-562 leukemia = tested on: K-562 leukemia
# SNB-19 CNS = tested on: SNB-19 CNS
# HS 578T breast = tested on: HS 578T breast
# SR leukemia = tested on: SR leukemia
# SK-OV-3 ovarian = tested on: SK-OV-3 ovarian
# SF-268 CNS = tested on: SF-268 CNS
# SNB-75 CNS = tested on: SNB-75 CNS
# NCI-H460 lung = tested on: NCI-H460 lung
# MCF7 breast = tested on: MCF7 breast
# MALME-3M melanoma = tested on: MALME-3M melanoma
# PC-3 prostate = tested on: PC-3 prostate
# NCI/ADR-RES ovarian = tested on: NCI/ADR-RES ovarian
# UACC-62 melanoma = tested on: UACC-62 melanoma
# KM12 colon = tested on: KM12 colon
# UO-31 renal = tested on: UO-31 renal
# SN12C renal = tested on: SN12C renal
# ACHN renal = tested on: ACHN renal
# RPMI-8226 leukemia = tested on: RPMI-8226 leukemia
# NCI-H23 lung = tested on: NCI-H23 lung
# DU-145 prostate = tested on: DU-145 prostate
# NCI-H522 lung = tested on: NCI-H522 lung
# SK-MEL-28 melanoma = tested on: SK-MEL-28 melanoma
# T-47D breast = tested on: T-47D breast
# HT29 colon = tested on: HT29 colon
# U251 CNS = tested on: U251 CNS
# HOP-62 NSCLC = tested on: HOP-62 NSCLC
# HOP-92 NSCLC = tested on: HOP-92 NSCLC
# HCT-116 colon = tested on: HCT-116 colon
# MDA-MB-231 breast = tested on: MDA-MB-231 breast
# OVCAR-8 ovarian = tested on: OVCAR-8 ovarian
# SK-MEL-2 melanoma = tested on: SK-MEL-2 melanoma
# IGROV1 ovarian = tested on: IGROV1 ovarian
# CCRF-CEM leukemia = tested on: CCRF-CEM leukemia
# M14 melanoma = tested on: M14 melanoma
# EKVX NSCLC = tested on: EKVX NSCLC
# SW-620 colon = tested on: SW-620 colon
# MOLT-4 leukemia = tested on: MOLT-4 leukemia
# A549 NSCLC = tested on: A549 NSCLC
# SK-MEL-5 melanoma = tested on: SK-MEL-5 melanoma
# UACC-257 melanoma = tested on: UACC-257 melanoma
# BT-549 breast = tested on: BT-549 breast
# SF-295 CNS = tested on: SF-295 CNS
# MDA-MB-435 = tested on: MDA-MB-435
# LOX IMVI melanoma = tested on: LOX IMVI melanoma
# A498 renal = tested on: A498 renal
# OVCAR-3 ovarian = tested on: OVCAR-3 ovarian
# CAKI-1 renal = tested on: CAKI-1 renal
compound,measurement,setting,value
Cc1nnc2sc(Cc3cnc(N)s3)nn12,TGI,COLO 205 colon,> 100 µM
same,TGI,TK-10 renal,> 100 µM
same,TGI,RXF 393 renal,> 100 µM
same,TGI,SF-539 CNS,> 100 µM
same,TGI,NCI-H226 lung,> 100 µM
same,TGI,HCT-15 colon,> 100 µM
same,TGI,HL-60(TB) leukemia,> 100 µM
same,TGI,786-0 renal,> 100 µM
same,TGI,OVCAR-5 ovarian,> 100 µM
same,TGI,HCC-2998 colon,> 100 µM
same,TGI,OVCAR-4 ovarian,> 100 µM
same,TGI,K-562 leukemia,> 100 µM
same,TGI,SNB-19 CNS,> 100 µM
same,TGI,HS 578T breast,> 100 µM
same,TGI,SR leukemia,> 100 µM
same,TGI,SK-OV-3 ovarian,> 100 µM
same,TGI,SF-268 CNS,> 100 µM
same,TGI,SNB-75 CNS,> 100 µM
same,TGI,NCI-H460 lung,> 100 µM
same,TGI,MCF7 breast,> 100 µM
same,TGI,MALME-3M melanoma,> 100 µM
same,TGI,PC-3 prostate,> 100 µM
same,TGI,NCI/ADR-RES ovarian,> 100 µM
same,TGI,UACC-62 melanoma,> 100 µM
same,TGI,KM12 colon,> 100 µM
same,TGI,UO-31 renal,> 100 µM
same,TGI,SN12C renal,> 100 µM
same,TGI,ACHN renal,> 100 µM
same,TGI,RPMI-8226 leukemia,> 100 µM
same,TGI,NCI-H23 lung,> 100 µM
same,TGI,DU-145 prostate,> 100 µM
same,TGI,NCI-H522 lung,> 100 µM
same,TGI,SK-MEL-28 melanoma,> 100 µM
same,TGI,T-47D breast,> 100 µM
same,TGI,HT29 colon,> 100 µM
same,TGI,U251 CNS,> 100 µM
same,TGI,HOP-62 NSCLC,> 100 µM
same,TGI,HOP-92 NSCLC,> 100 µM
same,TGI,HCT-116 colon,> 100 µM
same,TGI,MDA-MB-231 breast,> 100 µM
same,TGI,OVCAR-8 ovarian,> 100 µM
same,TGI,SK-MEL-2 melanoma,> 100 µM
same,TGI,IGROV1 ovarian,> 100 µM
same,TGI,CCRF-CEM leukemia,> 100 µM
same,TGI,M14 melanoma,> 100 µM
same,TGI,EKVX NSCLC,> 100 µM
same,TGI,SW-620 colon,> 100 µM
same,TGI,MOLT-4 leukemia,> 100 µM
same,TGI,A549 NSCLC,> 100 µM
same,TGI,SK-MEL-5 melanoma,> 100 µM
same,TGI,UACC-257 melanoma,> 100 µM
Cn1cc(-c2ccc(-c3cn(C)c4ncccc34)[nH]2)c2cccnc21,GI50,COLO 205 colon,1.82 µM
same,TGI,COLO 205 colon,3.84 µM
same,GI50,TK-10 renal,1.48 µM
same,TGI,TK-10 renal,2.88 µM
same,GI50,BT-549 breast,1.07 µM
same,TGI,BT-549 breast,2.79 µM
same,GI50,RXF 393 renal,1.52 µM
same,TGI,RXF 393 renal,3.65 µM
same,GI50,SF-295 CNS,4.28 µM
same,TGI,SF-295 CNS,12.1 µM
same,GI50,SF-539 CNS,1.59 µM
same,TGI,SF-539 CNS,3.32 µM
same,GI50,NCI-H226 lung,> 67.1 µM
same,TGI,NCI-H226 lung,> 100 µM
same,GI50,HCT-15 colon,1.69 µM
same,TGI,HCT-15 colon,4.63 µM
same,GI50,HL-60(TB) leukemia,1.87 µM
same,TGI,HL-60(TB) leukemia,7.48 µM
same,GI50,786-0 renal,4.64 µM
same,TGI,786-0 renal,38.6 µM
same,GI50,OVCAR-5 ovarian,1.65 µM
same,TGI,OVCAR-5 ovarian,3.59 µM
same,GI50,HCC-2998 colon,2.51 µM
same,TGI,HCC-2998 colon,5.89 µM
same,GI50,MDA-MB-435,24 µM
same,TGI,MDA-MB-435,> 100 µM
same,GI50,OVCAR-4 ovarian,0.638 µM
same,TGI,OVCAR-4 ovarian,1.61 µM
same,GI50,K-562 leukemia,1.76 µM
same,TGI,K-562 leukemia,8.11 µM
same,GI50,SNB-19 CNS,2.65 µM
same,TGI,SNB-19 CNS,8.03 µM
same,GI50,HS 578T breast,1.95 µM
same,TGI,HS 578T breast,6.42 µM
same,GI50,SR leukemia,1.62 µM
same,TGI,SR leukemia,> 22.1 µM
same,GI50,LOX IMVI melanoma,2 µM
same,TGI,LOX IMVI melanoma,3.93 µM
same,GI50,SK-OV-3 ovarian,25.1 µM
same,TGI,SK-OV-3 ovarian,> 100 µM
same,GI50,SF-268 CNS,2.23 µM
same,TGI,SF-268 CNS,5.45 µM
same,GI50,SNB-75 CNS,1.82 µM
same,TGI,SNB-75 CNS,4.34 µM
same,GI50,NCI-H460 lung,10 µM
same,TGI,NCI-H460 lung,> 100 µM
same,GI50,MCF7 breast,5.54 µM
same,TGI,MCF7 breast,> 100 µM
same,GI50,MALME-3M melanoma,2.7 µM
same,TGI,MALME-3M melanoma,7.12 µM
same,GI50,A498 renal,> 26.3 µM
same,TGI,A498 renal,> 100 µM
same,GI50,PC-3 prostate,1.43 µM
same,TGI,PC-3 prostate,3.38 µM
same,GI50,NCI/ADR-RES ovarian,2.93 µM
same,TGI,NCI/ADR-RES ovarian,9.59 µM
same,GI50,UACC-62 melanoma,1.63 µM
same,TGI,UACC-62 melanoma,3.76 µM
same,GI50,KM12 colon,2.02 µM
same,TGI,KM12 colon,4.23 µM
same,GI50,UO-31 renal,1.57 µM
same,TGI,UO-31 renal,3.01 µM
same,GI50,SN12C renal,7.26 µM
same,TGI,SN12C renal,> 100 µM
same,GI50,ACHN renal,1.62 µM
same,TGI,ACHN renal,3.08 µM
same,GI50,RPMI-8226 leukemia,1.94 µM
same,TGI,RPMI-8226 leukemia,6.88 µM
same,GI50,NCI-H23 lung,3.18 µM
same,TGI,NCI-H23 lung,12.7 µM
same,GI50,DU-145 prostate,> 100 µM
same,TGI,DU-145 prostate,> 100 µM
same,GI50,NCI-H522 lung,0.19 µM
same,TGI,NCI-H522 lung,0.451 µM
same,GI50,OVCAR-3 ovarian,1.63 µM
same,TGI,OVCAR-3 ovarian,3.3 µM
same,GI50,SK-MEL-28 melanoma,3.33 µM
same,TGI,SK-MEL-28 melanoma,10.9 µM
same,GI50,HT29 colon,10 µM
same,TGI,HT29 colon,> 100 µM
same,GI50,U251 CNS,1.66 µM
same,TGI,U251 CNS,3.17 µM
same,GI50,HOP-62 NSCLC,3.02 µM
same,TGI,HOP-62 NSCLC,24.8 µM
same,GI50,HOP-92 NSCLC,0.448 µM
same,TGI,HOP-92 NSCLC,2.13 µM
same,GI50,HCT-116 colon,2.81 µM
same,TGI,HCT-116 colon,12.4 µM
same,GI50,MDA-MB-231 breast,1.79 µM
same,TGI,MDA-MB-231 breast,4.08 µM
same,GI50,OVCAR-8 ovarian,2.44 µM
same,TGI,OVCAR-8 ovarian,6.45 µM
same,GI50,SK-MEL-2 melanoma,1.91 µM
same,TGI,SK-MEL-2 melanoma,4.04 µM
same,GI50,IGROV1 ovarian,4.5 µM
same,TGI,IGROV1 ovarian,53.4 µM
same,GI50,CCRF-CEM leukemia,2.27 µM
same,TGI,CCRF-CEM leukemia,7.56 µM
same,GI50,M14 melanoma,1.94 µM
same,TGI,M14 melanoma,3.97 µM
same,GI50,EKVX NSCLC,1.62 µM
same,TGI,EKVX NSCLC,3.34 µM
same,GI50,SW-620 colon,2.32 µM
same,TGI,SW-620 colon,5.34 µM
same,GI50,CAKI-1 renal,1.44 µM
same,TGI,CAKI-1 renal,4.03 µM
same,GI50,MOLT-4 leukemia,10.2 µM
same,TGI,MOLT-4 leukemia,> 100 µM
same,GI50,A549 NSCLC,7.84 µM
same,TGI,A549 NSCLC,> 100 µM
same,GI50,SK-MEL-5 melanoma,1.6 µM
same,TGI,SK-MEL-5 melanoma,3.47 µM
same,GI50,UACC-257 melanoma,2.93 µM
same,TGI,UACC-257 melanoma,19.6 µM
